According to US20240217957A1, “HETEROCYCLIC COMPOUND AND USE THEREOF” (TAKEDA PHARMACEUTICAL COMPANY LIMITED, priority 2022, published 2024):

Each compound was assayed against T1, human OX2 receptor (Homo sapiens, UniProt O43614) (assay: Measurement of orexin type 2 receptor agonist activity (calcium fluorescence, Fluo-4 AM, FDSS)). Conditions: compound at 3 μM; CHO cells forcibly expressing human OX2 receptor; DMSO = 0%, 10 nM orexin A (human) = 100%.
T1 construct: expressed in transfected cells
T1 sequence (O43614 1-444): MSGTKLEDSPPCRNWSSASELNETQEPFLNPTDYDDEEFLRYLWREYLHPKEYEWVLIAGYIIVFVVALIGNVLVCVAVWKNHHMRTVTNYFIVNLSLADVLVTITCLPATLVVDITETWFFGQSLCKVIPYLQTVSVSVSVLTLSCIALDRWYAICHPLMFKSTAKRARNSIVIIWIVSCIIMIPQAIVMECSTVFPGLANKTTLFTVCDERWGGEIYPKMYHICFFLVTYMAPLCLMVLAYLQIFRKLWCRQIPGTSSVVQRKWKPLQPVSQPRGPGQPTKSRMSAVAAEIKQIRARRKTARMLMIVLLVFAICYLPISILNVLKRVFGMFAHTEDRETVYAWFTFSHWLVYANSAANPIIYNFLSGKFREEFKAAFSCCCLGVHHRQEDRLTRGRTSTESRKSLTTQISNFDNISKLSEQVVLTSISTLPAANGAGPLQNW
Assay type: cell-based
Summary of the method: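 Agonist response is expressed as % of the fluorescence change given by 10 nM human orexin A, with DMSO as 0%, read over 1 min 40 s on FDSS after compound addition. Cells: stable human OX2 (1-444) CHO-K1 clones, dye-loaded with Fluo-4 AM plus probenecid in HEPES-buffered HBSS with 0.1% BSA.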

SMILES	OX2R agonist activity (3 μM, %)
Cc1cnc([C@@H]2CC(N3C[C@H](F)[C@H](NS(C)(=O)=O)C3)=NO2)c(-c2c(F)cc(F)cc2F)c1 [Example 57, N-[(3R,4S)-4-fluoro-1-{(5S)-5-[5-methyl-3-(2,4,6-trifluorophenyl)pyridin-2-yl]-4,5-dihydro-1,2-oxazol-3-yl}pyrrolidin-3-yl]methanesulfonamide]	105%
Cc1cnc([C@@H]2CC(N3C[C@@H](NS(=O)(=O)CF)C(F)(F)C3)=NO2)c(-c2c(F)cc(F)cc2F)c1 [Example 58, N-[(3R)-4,4-difluoro-1-{(5S)-5-[5-methyl-3-(2,4,6-trifluorophenyl)pyridin-2-yl]-4,5-dihydro-1,2-oxazol-3-yl}pyrrolidin-3-yl]-1-fluoromethanesulfonamide]	103%
Cc1cnc([C@@H]2CC(N3C[C@@H](NS(=O)(=O)C(F)F)C(F)(F)C3)=NO2)c(-c2c(F)cc(F)cc2F)c1 [Example 60, N-[(3R)-4,4-difluoro-1-{(5S)-5-[5-methyl-3-(2,4,6-trifluorophenyl)pyridin-2-yl]-4,5-dihydro-1,2-oxazol-3-yl}pyrrolidin-3-yl]-1,1-difluoromethanesulfonamide]	105%
Cc1cnc([C@@H]2CC(N3C[C@@H](C)[C@H](NS(C)(=O)=O)C3)=NO2)c(-c2c(F)cc(F)cc2F)c1 [Example 63, N-[(3S,4R)-4-methyl-1-{(5S)-5-[5-methyl-3-(2,4,6-trifluorophenyl)pyridin-2-yl]-4,5-dihydro-1,2-oxazol-3-yl}pyrrolidin-3-yl]methanesulfonamide]	101%
Cc1cnc([C@@H]2CC(N3CC(F)(F)C(C)(NS(C)(=O)=O)C3)=NO2)c(-c2c(F)cc(F)cc2F)c1 (stereo partly drawn) [Example 64, N-(4,4-difluoro-3-methyl-1-{(5S)-5-[5-methyl-3-(2,4,6-trifluorophenyl)pyridin-2-yl]-4,5-dihydro-1,2-oxazol-3-yl}pyrrolidin-3-yl)methanesulfonamide]	100%
O=S(=O)(N[C@@H]1CN(C2=NOC(c3ncc(F)cc3-c3c(F)cccc3F)C2)CC1(F)F)C1CC1 (stereo partly drawn) [Example 67, N-[(3R)-1-{5-[3-(2,6-difluorophenyl)-5-fluoropyridin-2-yl]-4,5-dihydro-1,2-oxazol-3-yl}-4,4-difluoropyrrolidin-3-yl]cyclopropanesulfonamide]	98%
CS(=O)(=O)N[C@@H]1CN(C2=NOC(c3ncc(F)cc3-c3c(F)cccc3F)C2)CC1(F)F (stereo partly drawn) [Example 69, N-[(3R)-1-{5-[3-(2,6-difluorophenyl)-5-fluoropyridin-2-yl]-4,5-dihydro-1,2-oxazol-3-yl}-4,4-difluoropyrrolidin-3-yl]methanesulfonamide]	95%
CS(=O)(=O)N[C@@H]1CN(C2=NOC(c3ncc(F)cc3-c3c(F)cc(F)cc3F)C2)CC1(F)F (stereo partly drawn) [Example 70, N-[(3R)-4,4-difluoro-1-{5-[5-fluoro-3-(2,4,6-trifluorophenyl)pyridin-2-yl]-4,5-dihydro-1,2-oxazol-3-yl}pyrrolidin-3-yl]methanesulfonamide]	94%
COCC1(NS(C)(=O)=O)CCN(C2=NO[C@H](c3ncc(C)cc3-c3c(F)cccc3F)C2)C1 (stereo partly drawn) [Example 73, N-[1-{(5S)-5-[3-(2,6-difluorophenyl)-5-methylpyridin-2-yl]-4,5-dihydro-1,2-oxazol-3-yl}-3-(methoxymethyl)pyrrolidin-3-yl]methanesulfonamide]	102%
Cc1cnc(C2(C)CC(N3C[C@@H](NS(C)(=O)=O)C(F)(F)C3)=NO2)c(-c2c(F)cccc2F)c1 (stereo partly drawn) [Example 76, N-[(3R)-1-{5-[3-(2,6-difluorophenyl)-5-methylpyridin-2-yl]-5-methyl-4,5-dihydro-1,2-oxazol-3-yl}-4,4-difluoropyrrolidin-3-yl]methanesulfonamide]	108%
Cc1cnc([C@@H]2CC(N3C[C@@H](F)[C@H](NS(=O)(=O)N(C)C)C3)=NO2)c(-c2c(F)cc(F)cc2F)c1 [Example 77, N′-[(3R,4R)-4-fluoro-1-{(5S)-5-[5-methyl-3-(2,4,6-trifluorophenyl)pyridin-2-yl]-4,5-dihydro-1,2-oxazol-3-yl}pyrrolidin-3-yl]-N,N-dimethylsulfuric diamide]	102%
Cc1cnc([C@@H]2CC(N3C[C@@H](F)[C@H](NS(=O)(=O)N(C)C)C3)=NO2)c(-c2c(F)cccc2F)c1 [Example 78, N′-[(3R,4R)-1-{(5S)-5-[3-(2,6-difluorophenyl)-5-methylpyridin-2-yl]-4,5-dihydro-1,2-oxazol-3-yl}-4-fluoropyrrolidin-3-yl]-N,N-dimethylsulfuric diamide]	102%

More lines, now with the values ahead:

OX2R agonist activity (3 μM, %)	SMILES
92%	Cc1cnc([C@@H]2CC(N3CC[C@H](NS(=O)(=O)CF)C3)=NO2)c(-c2c(F)cc(F)cc2F)c1 [Example 56, 1-fluoro-N-[(3S)-1-{(5S)-5-[5-methyl-3-(2,4,6-trifluorophenyl)pyridin-2-yl]-4,5-dihydro-1,2-oxazol-3-yl}pyrrolidin-3-yl]methanesulfonamide]
101%	Cc1cnc(C2(C(F)F)CC(N3C[C@@H](NS(C)(=O)=O)C(F)(F)C3)=NO2)c(-c2c(F)cccc2F)c1 (stereo partly drawn) [Example 59, N-[(3R)-1-{5-(difluoromethyl)-5-[3-(2,6-difluorophenyl)-5-methylpyridin-2-yl]-4,5-dihydro-1,2-oxazol-3-yl}-4,4-difluoropyrrolidin-3-yl]methanesulfonamide]
98%	Cc1cnc(C2CC(N3C[C@@H](NS(C)(=O)=O)C(F)(F)C3)=NO2)c(-c2c(F)cccc2Cl)c1 (stereo partly drawn) [Example 61, N-[(3R)-1-{5-[3-(2-chloro-6-fluorophenyl)-5-methylpyridin-2-yl]-4,5-dihydro-1,2-oxazol-3-yl}-4,4-difluoropyrrolidin-3-yl]methanesulfonamide]
97%	Cc1cnc([C@@H]2CC(N3C[C@@H](F)[C@H](NS(=O)(=O)CF)C3)=NO2)c(-c2c(F)cccc2F)c1 [Example 65, N-[(3R,4R)-1-{(5S)-5-[3-(2,6-difluorophenyl)-5-methylpyridin-2-yl]-4,5-dihydro-1,2-oxazol-3-yl}-4-fluoropyrrolidin-3-yl]-1-fluoromethanesulfonamide]
99%	Cc1cnc([C@@H]2CC(N3CC[C@H](NS(=O)(=O)C(F)F)C3)=NO2)c(-c2c(F)cc(F)cc2F)c1 [Example 66, 1,1-difluoro-N-[(3S)-1-{(5S)-5-[5-methyl-3-(2,4,6-trifluorophenyl)pyridin-2-yl]-4,5-dihydro-1,2-oxazol-3-yl}pyrrolidin-3-yl]methanesulfonamide]
104%	Cc1cnc([C@@H]2CC(N3C[C@H](F)[C@H](NS(=O)(=O)CF)C3)=NO2)c(-c2c(F)cccc2F)c1 [Example 68, N-[(3R,4S)-1-{(5S)-5-[3-(2,6-difluorophenyl)-5-methylpyridin-2-yl]-4,5-dihydro-1,2-oxazol-3-yl}-4-fluoropyrrolidin-3-yl]-1-fluoromethanesulfonamide]
58%	Cc1cnc([C@@H]2CC(O[C@H]3C[C@H](NS(C)(=O)=O)C3)=NO2)c(-c2c(F)cc(F)cc2F)c1 [Example 74, N-[(1s,3r)-3-({(5S)-5-[5-methyl-3-(2,4,6-trifluorophenyl)pyridin-2-yl]-4,5-dihydro-1,2-oxazol-3-yl}oxy)cyclobutyl]methanesulfonamide]
